Test results: ChEMBL document CHEMBL1131895, “Proteasome inhibition by the natural products epoxomicin and dihydroeponemycin: insights into specificity and potency” (Bioorg Med Chem Lett, 1999)

Columns and labels:
Type in all cases: functional
[1] = Antiproliferative activity of the compound
[2] = Inhibition of the PGPH-like activity
[3] = Inhibition of the trypsin-like activity
[4] = Inhibition of the chymotrypsin-like activity

SMILES	IC50 [1] [nM]	k obs / 1 [2] [M⁻¹ s⁻¹]	k obs / 1 [3] [M⁻¹ s⁻¹]	k obs / 1 [4] [M⁻¹ s⁻¹]
CC[C@H](C)[C@H](NC(=O)[C@H]([C@@H](C)CC)N(C)C(C)=O)C(=O)NC(C(=O)NC(CC(C)C)C(=O)[C@@]1(CO)CO1)[C@@H](C)O (single isomer, unassigned)	60	37	290	18000
CC[C@H](C)[C@H](NC(=O)[C@H]([C@@H](C)CC)N(C)C(C)=O)C(=O)NC(C(=O)NC(CC(C)C)C(=O)[C@@]1(C)CO1)[C@@H](C)O (single isomer, unassigned) [EPOXOMYCIN]	4	43	310	20000
CC(C)CCCCC(=O)NC(C(=O)NC(CC(C)C)C(=O)[C@@]1(C)CO1)[C@@H](C)O (some centres not stated)	520	45	4	25
CC(C)CCCCC(=O)NC(C(=O)NC(CC(C)C)C(=O)[C@@]1(CO)CO1)[C@@H](C)O (some centres not stated)	850	50	5	22
CC(C)CCCCC(=O)NC(CO)C(=O)N[C@H](CC(C)C)C(=O)[C@@]1(C)CO1 (some centres not stated)	260	57	5	34
CC(C)CCCCC(=O)NC(CO)C(=O)N[C@H](CC(C)C)C(=O)[C@@]1(CO)CO1 (some centres not stated)	100	175	17	58
CC[C@H](C)[C@H](NC(=O)[C@H]([C@@H](C)CC)N(C)C(C)=O)C(=O)NC(CO)C(=O)NC(CC(C)C)C(=O)[C@@]1(CO)CO1 (single isomer, unassigned)	140	35	470	17000
CC[C@H](C)[C@H](NC(=O)[C@H]([C@@H](C)CC)N(C)C(C)=O)C(=O)NC(CO)C(=O)NC(CC(C)C)C(=O)[C@@]1(C)CO1 (single isomer, unassigned)	4	90	1100	32000
